Results on one compound are retold here after patent publication US20100222334A1 (priority 2007, published 2010).

The conditions of series [1]: human, in vivo. As for the experimental part: In order to determine the relative bioavailability, an open-label, single dose, two-period, crossover study is conducted in 24 healthy subjects.
Series [2] in a line: Bioavailability of new 80 mg valsartan pediatric tablet relative to 80 mg commercial tablet, single-dose crossover. To be noted: in the same study. As for the experimental part: The study is conducted in 24 healthy subjects using an open-label, single-dose, two period, randomized, crossover study design.
The conditions of series [3]: administered as immediate release tablet formulation (Diovan); cited from earlier work.

For the compound `CCCCC(=O)N(Cc1ccc(-c2ccccc2-c2nnn[nH]2)cc1)[C@H](C(=O)O)C(C)C` [Valsartan, (S)—N-(1-carboxy-2-methylprop-1-yl)-N-pentanoyl-N-[2′-(1H-tetrazol-5-yl)biphenyl-4-ylmethyl]amine], in series [1], the “intersubject variability (CV %) for the Cmax and AUCτ” value is recorded as 24-40%. In series [2], the “variability of valsartan PK” value is 30-50%. In series [3], the bioavailability entry is recorded as “around 30%”.
